Data reported in patent US20120178815A1, “Compositions of (-)-E-10-OH-NT and Methods for Their Synthesis and Use” (Adolor Corporation, priority 2007, published 2012).
Where “and” joins values, the source holds several entries; their conditions need not be identical. Equal entries are not always repeated. Entries after “also recorded” stand apart in the source; their conditions may differ. Where two headings read alike, the source gives them in different places.

Legend:
hERG = hERG (Homo sapiens, UniProt Q12809); assay: hERG channel inhibition; assay type: biochemical; settings: cloned hERG channel α subunit (expression host not stated), 10 μM test compound, read-out: percent inhibition of hERG channels
Chain of hERG (Q12809 whole entry): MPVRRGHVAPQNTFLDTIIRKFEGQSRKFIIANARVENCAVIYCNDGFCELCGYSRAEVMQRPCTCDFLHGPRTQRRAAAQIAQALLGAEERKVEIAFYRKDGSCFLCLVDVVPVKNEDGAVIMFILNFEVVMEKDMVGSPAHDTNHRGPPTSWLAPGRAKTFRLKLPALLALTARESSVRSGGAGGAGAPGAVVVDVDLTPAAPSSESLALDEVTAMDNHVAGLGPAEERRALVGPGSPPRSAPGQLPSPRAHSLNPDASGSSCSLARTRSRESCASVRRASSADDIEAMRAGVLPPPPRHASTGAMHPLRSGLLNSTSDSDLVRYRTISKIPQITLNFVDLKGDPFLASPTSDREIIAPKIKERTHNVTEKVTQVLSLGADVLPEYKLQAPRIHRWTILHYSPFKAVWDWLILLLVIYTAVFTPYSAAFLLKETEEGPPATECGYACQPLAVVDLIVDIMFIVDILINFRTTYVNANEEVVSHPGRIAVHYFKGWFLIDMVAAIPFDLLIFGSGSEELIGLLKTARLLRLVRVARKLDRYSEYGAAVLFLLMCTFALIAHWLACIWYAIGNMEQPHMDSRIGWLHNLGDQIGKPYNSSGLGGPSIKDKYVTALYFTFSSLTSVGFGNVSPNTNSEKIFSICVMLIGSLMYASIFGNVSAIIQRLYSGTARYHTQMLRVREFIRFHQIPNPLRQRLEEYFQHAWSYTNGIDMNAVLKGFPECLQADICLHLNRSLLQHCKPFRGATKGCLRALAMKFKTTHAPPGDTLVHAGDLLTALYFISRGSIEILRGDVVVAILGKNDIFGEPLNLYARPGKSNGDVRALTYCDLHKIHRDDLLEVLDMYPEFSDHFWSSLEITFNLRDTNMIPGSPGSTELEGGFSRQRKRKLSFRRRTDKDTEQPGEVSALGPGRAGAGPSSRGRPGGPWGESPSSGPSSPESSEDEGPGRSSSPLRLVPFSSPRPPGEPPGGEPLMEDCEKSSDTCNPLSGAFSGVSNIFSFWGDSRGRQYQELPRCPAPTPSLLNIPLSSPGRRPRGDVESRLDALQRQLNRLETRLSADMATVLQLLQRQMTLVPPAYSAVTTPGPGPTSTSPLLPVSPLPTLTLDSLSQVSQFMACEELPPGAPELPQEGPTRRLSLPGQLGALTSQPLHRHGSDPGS

[1] = target: T1, DA uptake, rat striatum synaptosomes (Rattus norvegicus, UniProt P23977); assay: Inhibition of [3H]-DA uptake into synaptosomes; assay type: biochemical; settings: for inhibition at 10 µM: read-out: Monoamine Uptake Inhibition, DA, % inhib. at 10 μM; for IC50: read-out: Monoamine Uptake Inhibition, DA, IC50
T1 construct: into rat striatum synaptosomes; from tissue; host or cells: rat striatum synaptosomes
T1 sequence (P23977 whole entry): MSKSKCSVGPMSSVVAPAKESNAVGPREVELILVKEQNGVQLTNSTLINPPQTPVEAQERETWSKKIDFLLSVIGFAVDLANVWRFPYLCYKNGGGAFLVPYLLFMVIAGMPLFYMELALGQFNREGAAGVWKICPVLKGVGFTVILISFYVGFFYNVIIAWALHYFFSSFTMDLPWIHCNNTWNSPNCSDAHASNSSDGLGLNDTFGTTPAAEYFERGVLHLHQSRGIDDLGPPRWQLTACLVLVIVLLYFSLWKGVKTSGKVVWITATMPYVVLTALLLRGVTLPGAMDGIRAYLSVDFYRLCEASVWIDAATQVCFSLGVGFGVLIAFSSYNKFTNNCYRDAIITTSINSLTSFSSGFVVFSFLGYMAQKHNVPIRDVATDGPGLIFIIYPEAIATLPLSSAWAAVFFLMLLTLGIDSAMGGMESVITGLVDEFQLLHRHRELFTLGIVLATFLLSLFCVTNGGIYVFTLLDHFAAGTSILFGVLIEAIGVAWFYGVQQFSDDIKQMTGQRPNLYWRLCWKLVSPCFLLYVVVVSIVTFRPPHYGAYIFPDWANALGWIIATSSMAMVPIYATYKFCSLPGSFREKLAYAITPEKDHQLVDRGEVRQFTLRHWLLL

[2] = target: T2, α1a adrenergic receptor (rat salivary gland membranes) (Rattus norvegicus, UniProt P43140); assay: α1a adrenergic receptor binding, [3H]prazocine
T2 construct: tested using membranes prepared from rat salivary gland; from tissue; host or cells: rat salivary gland membranes
T2 sequence (P43140 1-466): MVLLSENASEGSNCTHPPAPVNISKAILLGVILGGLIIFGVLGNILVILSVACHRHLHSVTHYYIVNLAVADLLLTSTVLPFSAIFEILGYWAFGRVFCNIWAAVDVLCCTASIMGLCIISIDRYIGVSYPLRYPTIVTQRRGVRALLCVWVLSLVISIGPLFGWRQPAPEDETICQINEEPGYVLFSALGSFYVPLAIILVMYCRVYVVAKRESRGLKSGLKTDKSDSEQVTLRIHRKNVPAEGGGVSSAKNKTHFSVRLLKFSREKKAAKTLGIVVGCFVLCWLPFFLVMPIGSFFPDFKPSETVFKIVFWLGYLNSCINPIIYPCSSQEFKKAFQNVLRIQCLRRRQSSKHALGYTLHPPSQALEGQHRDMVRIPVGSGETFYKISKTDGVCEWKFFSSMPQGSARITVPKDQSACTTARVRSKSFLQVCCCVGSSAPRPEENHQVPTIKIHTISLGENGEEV
Experimental: The affinities of AT, NT, (+)-E-10-OH-NT and (−)-E-OH-NT for the α1a, α1b, α2a, α2b, and α2c adrenergic receptors was tested. Affinity for the α1a adrenergic receptor was tested using membranes prepared from rat salivary gland. [^3H]Prazocine (0.06 nM) was incubated in the presence of various concentrations of test compounds with the membranes for 1 hour at 22° C. Nonspecific binding was determined in the presence of 10 μM phentolamine. Bound radioactivity was determined by scintillation spectroscopy.

[3] = system: Sprague-Dawley rats, forced swim behaviour; assay: Rat Forced Swim Test of depression; assay type: in vivo; settings: for amount of time spent climbing: 3-30 mg/kg IP
Description: Protocol: Male Sprague-Dawley rats (approximately 200 g) are placed in a tank of room temperature water for a fifteen minute practice swim. Every five seconds during the first five minutes of the practice swim, the rats are rated as immobile (floating with motion needed to keep head above the water), swimming (movement across the swim), or climbing (actively trying to climb out of the tank of water, upward directed movements of the forepaws). The percentage of time the rats spent in each of these responses is calculated.
Approximately 24 h after the practice swim, the rats are treated with vehicle or test compound and placed in the tank for a 5 minute swim. As was the case with the practice swim, the rats are rated as immobile, swimming, or climbing during the test swim and the percentage of time spent in each of these responses is calculated. The data are analyzed by one-way ANOVA with post-hoc analysis to compare the behavioral response after vehicle treatment to the behavioral response after drug treatment for each of the three behavioral responses. The level of significance is set at p<0.05.
The percent of time spent immobile, swimming, and climbing (actively trying to scale the sides of the swim tank) in the test swim is shown in FIGS. 15 A, B, and C.

[4] = target: T3, human muscarinic receptor M2 (Homo sapiens, UniProt P08172); assay: Muscarinic M2 receptor binding, [3H]AF-DX384; settings: read-out: Affinity for Muscarinic Receptors, M2, Ki
T3 construct: expressed in transfected cells; host or cells: CHO cells (membranes)
T3 sequence (P08172 1-466): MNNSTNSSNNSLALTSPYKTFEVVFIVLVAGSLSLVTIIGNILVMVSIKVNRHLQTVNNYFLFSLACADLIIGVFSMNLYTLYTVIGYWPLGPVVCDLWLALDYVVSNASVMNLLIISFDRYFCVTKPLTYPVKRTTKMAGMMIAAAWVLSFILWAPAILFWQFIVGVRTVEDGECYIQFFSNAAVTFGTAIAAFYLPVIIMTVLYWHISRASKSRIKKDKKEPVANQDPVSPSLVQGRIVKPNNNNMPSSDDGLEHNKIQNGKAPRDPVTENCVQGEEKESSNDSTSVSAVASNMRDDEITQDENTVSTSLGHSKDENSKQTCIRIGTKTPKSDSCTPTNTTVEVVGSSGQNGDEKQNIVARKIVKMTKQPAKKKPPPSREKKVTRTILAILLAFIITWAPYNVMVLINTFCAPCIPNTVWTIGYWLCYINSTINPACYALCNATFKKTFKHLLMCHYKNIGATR
Experimental: Protocol. […] Bound radioactivity was determined by scintillation spectroscopy. Non-specific binding was defined as the amount of bound radioligand in the presence of 1.0 μM atropine. Radioligand for the M1 receptor was [^3H]pirenzepine (2 nM). Radioligand for the M2 receptor was [^3H]AF-DX384 (2 nM). Radioligand for the M3, M4, and M5 receptors was [^3H]4-DAMP.

[5] = system: rotarod performance in rats; assay: Rat rotarod assay of sedation; assay type: in vivo; settings: for peak deficit in rotarod performance: 30 mg/kg, i.p., peak at 30 minutes; for ED50 for impairment of rotarod performance: IP
Experimental: Protocol. The rat rotarod assay is commonly used to assess sedation associated with chemical drugs. […] Once the rats were in position, the timers were set to zero and the rotarod switched to accelerating mode. The rotarod accelerated from 4 to 40 rpm over a five-minute interval. The timers automatically turned off when the rats fell from the rotating drum, recording a latency to fall in seconds. […] The performance score was recorded in seconds for each interval. The baseline rotarod performance score was the latency to fall off the rotarod on the third training session. Baselines must have been greater than or equal to 60 seconds duration for the rat to be included in the experiment.

[6] = read-out: Affinity at α1a adrenergic receptor, Ki

Structure (SMILES) | inhibition at 10 µM (hERG) [%] | inhibition at 10 µM [1] [%] | IC50 [1] [nM] | Ki [2, 6] [nM] | activity in the forced swim test ([3]; doses up to 30 mg/kg IP) | Ki [4] [nM] | impairment of rotarod performance ([5]; 30 mg/kg IP, rats (Example 17)) [%] | peak deficit in rotarod performance ([5]; rats) | ED50 for impairment of rotarod performance ([5]; rats) [mg/kg IP] | increase in time spent swimming ([3]; 10 mg/kg IP) [%] | increase in time spent swimming ([3]; 30 mg/kg IP) [%] | amount of time spent climbing [3] | maximal impairment of rotarod performance ([5]; 100 mg/kg IP, rats) [%] | Ki [2] [nM]
CNCC/C=C1\c2ccccc2C[C@H](O)c2ccccc21 (stereo in doubt) [(+)-E-10-OH-NT] | 8.8 | 19 | > 1000 | 700 | not active | 4200 | – | – | – | – | – | – | – | –
CNCC/C=C1\c2ccccc2C[C@@H](O)c2ccccc21 (stereo in doubt) [(−)-E-10-OH-NT] | 6 | 16 | > 1000 | 3000 | – | 2600 | 5 | no impairment in rotarod performance; also recorded: no significant impairment in performance; also recorded: no impairment of performance | 120 | 64 | 108 | did not alter the amount of time spent climbing | – | –
CN(C)CCC=C1c2ccccc2CCc2ccccc21 [AT, amitriptyline, reference compound] | – | – | 2400 | 21 | – | – | – | 51±20% | 27 | 81 | 147 | did not alter the amount of time spent climbing | 96 | –
CNCCC=C1c2ccccc2CCc2ccccc21 [NT, nortriptyline, reference compound] | 55.1 | – | 1700 | – | – | 220 | – | 60±14% and 60±40% | – | – | – | – | – | 60
